In US12428666B2, “Compositions and methods related to kethoxal derivatives” (The University of Chicago, priority 2018, dated 2025):
Entries after “also recorded” stand apart in the source; their conditions may differ.

Columns and labels:
[1] = system: single-strand RNA (ssRNA); test: Selectivity of N3-kethoxal to ssRNA by denaturing gel electrophoresis; type: biochemical
Excerpt: The complementary RNA oligoes FS1 (5'-[…] NO:1, Fluorescent RNA oligo) and […]

[2] = system: living mouse embryonic stem cells (mESCs); test: In vivo labeling of living mES cells, dot blot of isolated biotinylated RNA; type: cell-based
Protocol: In vivo study: 10 μL N3-kethoxal was added into the cell culture medium in 100 mm cell culture dish with nearly 80% confluent mES cells. After incubation at 37° C. in CO2 incubator for a specific time, the medium was aspirated and the cells were washed three times by PBS. The total RNA was isolated by Trizol™ reagent (Invitrogen, 15596026) or Qiagen RNeasy™ plus mini kit (Qiagen, 74134). mRNA was isolated by Dynabeads™ mRNA DIRECT™ Purification Kit (Invitrogen, 61011). The biotinylation step was same as in vitro study. The biotinylated RNA was purified by RNA clean & concentrator.
Dot blot assay: one microliter RNA (100 ng/uL) sample was spotted onto the Amersham Hybond-N+ membrane (RPN119B, GE Healthcare) and UV crosslinked to the membrane by UVP HL-2000 hybriLinker. The membrane was washed using 1×PBST (0.1% tween-20) and blocked with 5% nonfat dry milk in 1×PBST overnight at 4° C. After four times wash using 1×PBST with ten-minute interval, the streptavidin-horseradish peroxidase (1:15000 dilution, streptavidin-HRP, Life Technologies, S-911) in 1×PBST with 3% BSA was added and incubated at room temperature for 40 mins. Then then membrane was washed using 1×PBST with ten-minute interval again and developed by SuperSignal™ West Pico PLUS Chemiluminescent Substrate (Thermo Scientific, 34577). The membrane was washed by 1×PBST again and stained by methylene blue solution (0.02% methylene blue in 0.3 M sodium Acetate pH 5.2).

[3] = system: N3-kethoxal labelled RNA; test: Reversibility of N3-kethoxal labelled RNA with excess GTP (MALDI-TOF, dot blot); type: physicochemical; conditions: for time for almost complete removal of N3-kethoxal modification on labeled RNA: excessive GTP (50 mM)
Protocol: Removal N3-kethoxal modification from N3-kethoxal labelled RNA. The detailed protocol of N3-kethoxal modification erasing is described below “N3-kethoxal-remove sample preparation” in the keth-seq protocol. Generally, the purified N3-kethoxal modified RNA was incubated with high concentration of GTP (½ volume of the reaction solution, final concentration 50 mM) at 37° C. for 6 hours or at 95° C. for 10 mins. Higher temperature benefits the removal the N3-kethoxal modification.

[4] = system: guanine; test: Reaction of N3-kethoxal with RNA nucleic bases and RNA oligos (HPLC, MALDI-TOF); type: biochemical
Protocol: The reaction of N3-kethoxal and RNA was generally performed with the following protocol: 100 pmol RNA oligo and 1 μmol N3-kethoxal was incubated in total 10 μL solution in PBS buffer at 37° C. for 10 mins. […] The purified labelled RNA can be used for further studies such as mass spectrometry, gel electrophoresis and copper-free click reaction with biotin-DBCO.
MALDI-TOF-MS analysis of N3-kethoxal labelled RNA oligo. […] Meanwhile the buffer exchange occurred from PBS buffer to tris buffer that can be directly used in MALDI-TOF-MS experiment without extra desalt step. One microliter of product solution was mixed with one microliter matrix which include 8:1 volume ratio of 2′4′6′-trihydroxyacetophenone (THAP, 10 mg/mL in 50% CH3CN/H2O):ammonium citrate (50 mg/mL in H2O). Then the mixture was spotted on the MALDI sample plate, dried and analyzed by Bruker Ultraflextreme MALDI-TOF-TOF Mass Spectrometers.
The product of N3-kethoxal with for RNA nucleic bases was analyzed using LC-6AD (Shimadzu, Japan) HPLC instrument, which equipped with an Inertsil ODS-SP column ([…], 250×4.6 mm) (GL Science Inc. Japan). The phase A (100 mM TEAA buffer, pH=7.0) and phase B (CH3CN) were used as eluents with a flow rate of 1 mL/min at 35° C. (B conc.: 5-5-30%/0-5-30 min).

[5] = system: RNA of mouse ES cells; test: Keth-seq RT stop distribution; type: cell-based
Protocol: A library was prepared following icSHAPE protocol with slight changes (Spitale et al., Nature 519:486-90, 2015). The detailed protocol is described below. For in vitro library preparation, RNA was isolated and refolded in RNA folding mix buffer firstly (100 mM HEPES, pH 8.0, 100 mM NaCl, 10 mM MgCl2). The refolded RNA was treated with N3-kethoxal and then utilized for library construction. For in vivo study, N3-kethoxal was added into the cultural medium of mES cell and the RNA was isolated to be utilized for library construction.
Sequencing data processing. As the library structure is similar to icSHAPE technique, a similar strategy was used to preprocess the sequencing reads. Pipeline from icSHAPE protocol was used to conduct the data analysis, all the scripts can be accessed at URL github.com/qczhang/icSHAPE. Firstly, script readCollapse.pl was used to collapse the reads with default parameter. […] Enriched reactivity for each transcript was calculated by comparing kethoxal sample (foreground) versus control sample (background) using script calcEnrich.pl (-w factor5:scaling1 -x 0.25). […]

[6] = system: N3-kethoxal labelled RNA; test: Fixation of N3-kethoxal modification in RNA by borate buffer; type: physicochemical; conditions: final concentration 50 mM
Protocol: Fixation of N3-kethoxal modification in RNA. The labile N3-kethoxal modification in RNA can be fixed in the presence of borate buffer. The solution of N3-kethoxal labelled RNA was mixed with 1/10 volume of stock borate buffer (final concentration: 50 mM; stock borate buffer: 500 mM potassium borate, pH 7.0, pH was monitored while adding potassium hydroxide pellets to 500 mM boric acid). The borate buffer fixation was used in various steps of keth-seq protocol, see below.

[7] = system: RNA G-quadruplexes (rG4) in HeLa cell; test: Keth-seq of rG4 regions with or without PDS treatment; type: cell-based, human; conditions: HeLa cell mRNA, 105 regions
Protocol: The characterization of RNA G-quadruplexes (rG4) in vivo remains challenging. Because of its high specificity towards guanine, the rG4 structure is a good object of N3-kethoxal to probe. It has been reported that PDS treatment can induce the formation of rG4 inside cells based on immunofluorescence imaging. Keth-seq was tested for the ability to identify rG4 structures induced by PDS inside cells. Keth-seq libraries were prepared using mRNA isolated from HeLa cell with or without PDS treatment. Previously identified rG4 structure regions (n=13,423 from in vitro probing) were analyzed in the Keth-seq data, and detected hundreds of regions with potential secondary structure (FIG. 14d). […] As the regions that form rG4 in vivo are more […], their structures were compared in terms of GINI index. […] Two examples were included where the signal in the defined rG4 regions in the PDS sample is lower than that in the control sample (FIG. 7f).

[8] = 50 mM GTP, neutral buffer, 37° C., MALDI-TOF

N3-kethoxal modification in mRNA after 10 mins incubation ([3]; 50 mM GTP, 95° C., dot blot) | kethoxal modification after 2 h incubation [3, 8] | kethoxal modification after 6 h incubation [3, 8] | time for almost complete removal of N3-kethoxal modification on labeled RNA ([3]; 37° C.) | time for almost complete removal of N3-kethoxal modification on labeled RNA ([3]; 95° C.) | stability of N3-kethoxal labeled RNA in borate buffer [6] | Compound | gel shift on double-stranded RNA after incubation ([1]; double-stranded RNA) | gel shift on single-stranded RNA after incubation ([1]; single-stranded RNA) | cell permeability ([2]; added directly to culture medium of living cells) | time to label DNA and RNA in living cells ([2]; living cells) | dot blot signal saturation with incubation time ([2]; mESCs, 1, 5, 10, 15, 20 mins) | labelling of RNA oligo (MALDI-TOF molecular weight of product) ([4]; 12 mer RNA oligo with 4 guanines) | reaction with four RNA nucleic bases (HPLC) ([4]; G, A, C, U) | labeling activity compared with SHAPE reagent NAI ([4]; RNA oligo) | guanine share of RT-stopped sites among all reads ([5]; N3-kethoxal sample) | G-stop sites with treatment time (keth-seq) ([5]; mES cell, 1 min vs 5 mins treatment) | GINI index of known rG4 regions vs control sample [7]
removed thoroughly | largely removed | almost removed | ≤ 6 h | ≤ 0.167 h | stabilized in borate buffer | CC(OCCN=[N+]=[N-])C(=O)C(O)O (centres unmarked) [N3-kethoxal, 3-(2-azidoethoxy)-1,1-dihydroxybutan-2-one] | no such shift was detected | a shift was observed | highly cell-permeable; also recorded: could permeate the living cell efficiently even during one-minute incubation; also recorded: excellent cell permeability | ≤ 5 min | saturated within five minutes | all guanines (4 guanines) were modified | can only react with guanine (G) and was inert with A, C, and U | higher labeling activity | > 80% | G-stop sites were increased from 1 min to 5 mins | –
– | – | – | – | – | – | NCCOc1cc(C(=O)Nc2cc(OCCN)c3ccccc3n2)nc(C(=O)Nc2cc(OCCN)c3ccccc3n2)c1 [PDS] | – | – | – | – | – | – | – | – | – | – | higher GINI index than the control sample
